Laboratory results taken from ChEMBL document CHEMBL3862031, “Design, synthesis and activity of novel sorafenib analogues bearing chalcone unit” (Bioorg Med Chem Lett, 2016).

Assays:
[1] = (§1) Cytotoxicity against human A549 cells after 72 hrs by MTT assay; assay type: functional, cell-based; conditions: A549, 72 h
[2] = (§2) Cytotoxicity against human HepG2 cells after 72 hrs by MTT assay; assay type: functional, cell-based; conditions: HepG2, 72 h
[3] = (§3) Cytotoxicity against human MCF7 cells after 72 hrs by MTT assay; assay type: functional, cell-based; conditions: MCF7, 72 h
[4] = (§4) Cytotoxicity against human PC3 cells after 72 hrs by MTT assay; assay type: functional, cell-based; conditions: PC-3, 72 h
[5] = test system: A549; test: as §1; assay type: functional, cell-based
[6] = test system: HepG2; test: as §2; assay type: functional, cell-based
[7] = test system: MCF7; test: as §3; assay type: functional, cell-based
[8] = test system: PC-3; test: as §4; assay type: functional, cell-based
[9] = biological target: Vascular endothelial growth factor receptor 2 (Homo sapiens, UniProt P35968); test: Inhibition of VEGFR2 (unknown origin) using FAM-labeled peptide as substrate preincubated for 10 mins followed by substrate addition by mobility shift assay
[10] = biological target: Serine/threonine-protein kinase B-raf (Homo sapiens, UniProt P15056); test: Inhibition of BRAF (unknown origin) using FAM-labeled peptide as substrate after 1 hr by Lanthascreen assay
[11] = test system: MCF7; test: Potency index, ratio of sorafenib IC50 to compound IC50 for human MCF7 cells; assay type: functional
[12] = test system: PC-3; test: Potency index, ratio of sorafenib IC50 to compound IC50 for human PC3 cells; assay type: functional
[13] = test system: HepG2; test: Potency index, ratio of sorafenib IC50 to compound IC50 for human HepG2 cells; assay type: functional

Sequence of Vascular endothelial growth factor receptor 2 (P35968 whole entry): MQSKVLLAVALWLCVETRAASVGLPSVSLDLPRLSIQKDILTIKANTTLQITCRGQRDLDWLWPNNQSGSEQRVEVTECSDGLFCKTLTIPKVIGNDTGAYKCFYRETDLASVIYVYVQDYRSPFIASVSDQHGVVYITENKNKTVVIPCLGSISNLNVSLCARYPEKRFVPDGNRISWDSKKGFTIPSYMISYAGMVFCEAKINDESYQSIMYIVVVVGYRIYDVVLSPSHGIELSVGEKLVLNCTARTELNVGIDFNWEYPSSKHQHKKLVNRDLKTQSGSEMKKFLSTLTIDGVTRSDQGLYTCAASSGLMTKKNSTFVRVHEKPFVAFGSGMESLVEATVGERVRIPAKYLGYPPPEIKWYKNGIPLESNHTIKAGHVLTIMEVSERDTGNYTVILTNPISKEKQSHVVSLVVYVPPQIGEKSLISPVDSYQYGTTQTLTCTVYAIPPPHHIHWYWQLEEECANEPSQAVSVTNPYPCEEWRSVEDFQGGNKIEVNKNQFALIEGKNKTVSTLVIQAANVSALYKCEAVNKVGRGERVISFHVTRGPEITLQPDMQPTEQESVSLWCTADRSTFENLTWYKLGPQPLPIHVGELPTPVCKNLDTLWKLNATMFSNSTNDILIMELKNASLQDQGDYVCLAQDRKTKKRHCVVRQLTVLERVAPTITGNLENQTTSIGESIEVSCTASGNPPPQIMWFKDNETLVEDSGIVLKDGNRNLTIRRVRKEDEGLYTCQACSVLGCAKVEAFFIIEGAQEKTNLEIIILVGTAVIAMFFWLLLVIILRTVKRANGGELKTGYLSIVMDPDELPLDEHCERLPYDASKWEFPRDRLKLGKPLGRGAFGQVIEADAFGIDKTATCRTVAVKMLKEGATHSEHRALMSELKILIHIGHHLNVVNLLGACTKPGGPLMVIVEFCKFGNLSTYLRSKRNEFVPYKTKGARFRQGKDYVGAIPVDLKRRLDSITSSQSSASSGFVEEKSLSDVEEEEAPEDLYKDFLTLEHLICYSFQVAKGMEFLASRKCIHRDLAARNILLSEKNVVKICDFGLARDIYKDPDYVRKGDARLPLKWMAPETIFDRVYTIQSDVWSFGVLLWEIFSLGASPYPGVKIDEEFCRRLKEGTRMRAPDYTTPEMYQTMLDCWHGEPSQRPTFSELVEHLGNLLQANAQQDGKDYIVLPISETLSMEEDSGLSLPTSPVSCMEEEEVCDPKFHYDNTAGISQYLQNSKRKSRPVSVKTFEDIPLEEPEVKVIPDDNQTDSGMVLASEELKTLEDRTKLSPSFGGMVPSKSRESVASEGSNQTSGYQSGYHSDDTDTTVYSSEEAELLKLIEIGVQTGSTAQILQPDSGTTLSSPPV
Sequence of Serine/threonine-protein kinase B-raf (P15056 whole entry): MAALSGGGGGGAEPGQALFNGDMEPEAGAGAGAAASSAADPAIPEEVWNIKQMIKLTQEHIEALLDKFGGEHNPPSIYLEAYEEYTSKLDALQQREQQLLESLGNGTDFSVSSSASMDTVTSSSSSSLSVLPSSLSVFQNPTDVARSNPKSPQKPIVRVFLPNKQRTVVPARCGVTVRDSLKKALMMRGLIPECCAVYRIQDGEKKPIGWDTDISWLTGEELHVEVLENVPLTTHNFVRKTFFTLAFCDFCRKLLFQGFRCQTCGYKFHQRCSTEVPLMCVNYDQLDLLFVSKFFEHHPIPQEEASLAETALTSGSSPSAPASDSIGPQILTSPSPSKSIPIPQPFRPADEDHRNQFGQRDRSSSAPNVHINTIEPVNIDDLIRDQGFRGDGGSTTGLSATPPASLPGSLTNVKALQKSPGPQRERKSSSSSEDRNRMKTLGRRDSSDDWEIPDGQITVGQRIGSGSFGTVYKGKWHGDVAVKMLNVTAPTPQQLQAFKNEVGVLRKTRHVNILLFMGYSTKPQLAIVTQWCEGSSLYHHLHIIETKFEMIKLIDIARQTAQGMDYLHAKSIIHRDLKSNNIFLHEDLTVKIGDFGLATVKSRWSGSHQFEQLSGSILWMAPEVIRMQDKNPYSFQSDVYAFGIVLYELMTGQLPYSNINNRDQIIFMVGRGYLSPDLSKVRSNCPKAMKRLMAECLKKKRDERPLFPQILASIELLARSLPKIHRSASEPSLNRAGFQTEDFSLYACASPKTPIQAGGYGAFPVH

| SMILES | IC50 [1] [µM] | IC50 [2] [µM] | IC50 [3] [µM] | IC50 [4] [µM] | further results |
| --- | --- | --- | --- | --- | --- |
| CNC(=O)c1cc(Oc2ccc(C(=O)/C=C/c3ccc(Br)cc3)cc2)ccn1 | > 50 | > 50 | > 50 | 18.5 | – |
| CNC(=O)c1cc(Oc2ccc(C(=O)/C=C/c3ccc(C#N)cc3)cc2)ccn1 | 26.4 | 5.43 | 9.52 | 3.87 | – |
| CNC(=O)c1cc(Oc2ccc(/C=C/C(=O)c3ccc(Cl)cc3)cc2)ccn1 | – | 36.6 | 17.5 | – | – |
| CNC(=O)c1cc(Oc2ccc(C(=O)/C=C/c3ccc(OC)cc3)cc2)ccn1 | > 50 | – | – | > 50 | – |
| CNC(=O)c1cc(Oc2ccc(/C=C/C(=O)c3ccc([N+](=O)[O-])cc3)cc2)ccn1 | – | 41.4 | 54.3 | – | – |
| CNC(=O)c1cc(Oc2ccc(NC(=O)Nc3ccc(Cl)c(C(F)(F)F)c3)cc2)ccn1 [SORAFENIB] | 2.92 | 3.44 | 3.18 | 3.24 | – |
| CNC(=O)c1cc(Oc2ccc(C(=O)/C=C/c3cccc(Cl)c3Cl)cc2)ccn1 | > 50 | > 50 | – | > 50 | – |
| CNC(=O)c1cc(Oc2ccc(C(=O)/C=C/c3ccc(Cl)c(Cl)c3)cc2)ccn1 | 33.7 | 11.4 | 13.2 | 8.26 | – |
| CNC(=O)c1cc(Oc2ccc(C(=O)/C=C/c3ccc(F)cc3)cc2)ccn1 | 18.6 | 12.6 | 28.5 | 6.14 | – |
| CNC(=O)c1cc(Oc2ccc(/C=C/C(=O)c3ccc(C)cc3)cc2)ccn1 | – | > 50 | 24.9 | – | – |
| CNC(=O)c1cc(Oc2ccc(C(=O)/C=C/c3ccc(OC)c(OC)c3OC)cc2)ccn1 | – | 9.81 | 2.91 | – | – |
| CNC(=O)c1cc(Oc2ccc(C(=O)/C=C/c3cccc(Br)c3)cc2)ccn1 | 9.94 | 2.87 | 10.4 | 3.4 | Activity [5]: Dose-dependent effect; Activity [6]: Dose-dependent effect; Activity [7]: Dose-dependent effect; Activity [8]: Dose-dependent effect; IC50 [9]: 0.72 µM; IC50 [10]: 2.9 µM |
| CNC(=O)c1cc(Oc2ccc(C(=O)/C=C/c3ccc(Cl)cc3Cl)cc2)ccn1 | 9.46 | 11.7 | 3.99 | 9.22 | – |
| CNC(=O)c1cc(Oc2ccc(C(=O)/C=C/c3ccc([N+](=O)[O-])cc3)cc2)ccn1 | > 50 | – | – | 11.1 | – |
| CNC(=O)c1cc(Oc2ccc(/C=C/C(=O)c3ccc(F)cc3)cc2)ccn1 | – | 12.3 | 2.05 | – | Ratio IC50 [11]: 1.55; IC50 [9]: > 50 µM; IC50 [10]: > 50 µM |
| CNC(=O)c1cc(Oc2ccc(C(=O)/C=C/c3cccc([N+](=O)[O-])c3)cc2)ccn1 | – | > 50 | > 50 | – | – |
| CNC(=O)c1cc(Oc2ccc(C(=O)/C=C/c3ccccc3)cc2)ccn1 | 5.04 | 6.64 | 5.96 | 3.17 | Ratio IC50 [12]: 1.02; IC50 [9]: 1.1 µM; IC50 [10]: 2.4 µM |
| CNC(=O)c1cc(Oc2ccc(C(=O)/C=C/c3cc(OC)c(OC)c(OC)c3)cc2)ccn1 | 9.5 | 0.56 | 3.88 | 3.15 | Ratio IC50 [11]: 1.03 - 6.14; Ratio IC50 [13]: 6.14; Ratio IC50 [12]: 1.03 - 6.14; IC50 [9]: 3.2 µM; IC50 [10]: 1.8 µM |
| CNC(=O)c1cc(Oc2ccc(/C=C/C(=O)c3ccc(Br)cc3)cc2)ccn1 | 20.1 | 22 | 7.1 | 3.56 | – |
| CNC(=O)c1cc(Oc2ccc(C(=O)/C=C/c3ccc(F)cc3Cl)cc2)ccn1 | 21.1 | 7.32 | 21.1 | 4.76 | – |
